Values quoted from earlier work, collected in US7125702B2, “Process for the preparation of angiotensis converting enzyme (ACE) inhibitors and its use” (Council of Scientific and Industrial Research, priority 2003, dated 2006).

Tests used:
[1] = target: angiotensin I-converting enzyme (Homo sapiens, UniProt P12821); details: read-out: IC50 (ACE inhibition)
[2] = system: blood pressure
[3] = system: spontaneously hypertensive rats; details: 30 mg/kg intravenous injection
[4] = target: angiotensin-converting enzyme (Homo sapiens, UniProt P12821); details: read-out: IC50 (ACE inhibition)
Chain of angiotensin-converting enzyme (P12821 30-1306): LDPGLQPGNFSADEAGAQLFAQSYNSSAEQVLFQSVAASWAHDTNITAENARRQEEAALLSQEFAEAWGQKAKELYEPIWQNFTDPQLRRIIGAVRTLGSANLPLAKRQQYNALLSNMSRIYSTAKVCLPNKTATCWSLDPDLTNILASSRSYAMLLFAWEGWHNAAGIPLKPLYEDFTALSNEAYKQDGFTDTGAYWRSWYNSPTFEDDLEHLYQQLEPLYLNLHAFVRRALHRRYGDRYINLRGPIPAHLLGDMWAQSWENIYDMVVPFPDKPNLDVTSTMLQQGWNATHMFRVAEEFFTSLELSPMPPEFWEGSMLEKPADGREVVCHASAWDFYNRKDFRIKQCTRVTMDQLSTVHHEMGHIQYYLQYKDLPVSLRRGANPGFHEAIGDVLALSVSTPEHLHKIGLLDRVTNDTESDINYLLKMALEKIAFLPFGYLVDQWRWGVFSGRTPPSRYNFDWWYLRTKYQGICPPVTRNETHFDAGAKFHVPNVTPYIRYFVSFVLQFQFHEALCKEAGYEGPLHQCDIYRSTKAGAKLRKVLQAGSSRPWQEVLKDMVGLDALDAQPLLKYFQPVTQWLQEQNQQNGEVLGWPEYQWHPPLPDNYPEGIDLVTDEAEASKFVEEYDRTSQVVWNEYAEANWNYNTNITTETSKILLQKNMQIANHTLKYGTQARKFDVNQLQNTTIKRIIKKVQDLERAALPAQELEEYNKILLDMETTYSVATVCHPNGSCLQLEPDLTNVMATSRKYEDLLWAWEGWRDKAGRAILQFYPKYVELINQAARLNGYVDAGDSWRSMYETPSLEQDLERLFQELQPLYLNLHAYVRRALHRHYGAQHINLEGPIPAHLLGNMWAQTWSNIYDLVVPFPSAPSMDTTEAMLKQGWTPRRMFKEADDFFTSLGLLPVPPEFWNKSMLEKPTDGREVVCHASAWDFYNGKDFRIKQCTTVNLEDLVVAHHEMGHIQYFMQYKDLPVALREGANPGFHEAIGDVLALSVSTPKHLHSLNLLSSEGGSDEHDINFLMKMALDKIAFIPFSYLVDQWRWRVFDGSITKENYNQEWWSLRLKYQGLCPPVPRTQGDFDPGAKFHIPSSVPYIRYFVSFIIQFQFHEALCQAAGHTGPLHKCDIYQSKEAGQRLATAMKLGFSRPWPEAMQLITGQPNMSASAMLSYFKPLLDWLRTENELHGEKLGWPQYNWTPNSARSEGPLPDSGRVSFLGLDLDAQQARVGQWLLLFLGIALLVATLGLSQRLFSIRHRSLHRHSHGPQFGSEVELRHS

Chain of angiotensin I-converting enzyme (P12821 30-1306): as above

With Ap-Leu-Pro as the substance, how does the IC50 [1] read?
The IC50 was 4800 nM.

With Asp-Gly as the substance, how does the IC50 [1] read?
Its IC50 is 12300 nM.

Which “pressure in the aorta” value ([2]; synthetic peptide) does the source give for His-His-Leu here?
Its value is “significant pressure decrease”.

And the “systolic blood pressure decrease” value ([2]; triple injections of the peptide)?
Its value is 61 mm Hg.

Which results are given for “Leu-Arg-Pro [tripeptide from thermolysin hydrolysate of α-zein]”?
blood pressure decrease [3]: 15 mm Hg; IC50 [4]: 270 nM

Which IC50 [4] does the source give for “Leu-Asn-Pro [tripeptide from thermolysin hydrolysate of α-zein]” here?
Its IC50 is 1900 nM.

With “Leu-Ser-Pro [tripeptide from thermolysin hydrolysate of α-zein]” as the substance, how does the IC50 [4] read?
The IC50 was 1700 nM.
